Data as given in US11040028B2, “Penicinotam derivative, preparation method and use thereof” (OCEAN UNIVERSITY OF CHINA, priority 2017, dated 2021).

Experiments:
Format in all cases: cell-based
BHK-21 cells = assay: Anti-fibrosis activity test: inhibition of BHK-21 cell proliferation (CCK-8); conditions: Mesocricetus auratus, BHK-21, 48 h
Summary of the method: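 Proliferation of BHK-21 cells is measured by CCK-8 at 450 nm following 48 h compound exposure at several concentrations. Inhibition is expressed relative to blank control and IC50 is computed from it.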

[1] = test system: human lung fibroblasts HFL1; assay: Anti-fibrosis activity test: inhibition of proliferation of human lung fibroblasts HFL1 (CCK-8); conditions: Homo sapiens, HFL1, 48 h
Summary of the method: (§1)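 48 h compound treatment of fibroblast-type cells seeded at 2×10^4 cells/mL, 37° C, 5% CO2; viability by CCK-8 (2 h, A450). Inhibition rate calculated against blank control, IC50 by curve fitting; pirfenidone served as reference.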

[2] = test system: human hepatic stellate cells LX-2; assay: Anti-fibrosis activity test: inhibition of proliferation of human hepatic stellate cells LX-2 (CCK-8); conditions: Homo sapiens, 48 h
Summary of the method: as §1

[3] = test system: human fibrosarcoma cells HT-1080; assay: Anti-fibrosis activity test: inhibition of proliferation of human fibrosarcoma cells HT-1080 (CCK-8); conditions: Homo sapiens, HT-1080, 48 h
Summary of the method: as §1

[4] = test system: human dermal fibroblasts CCC-ESF-1; assay: Anti-fibrosis activity test: inhibition of proliferation of human dermal fibroblasts CCC-ESF-1 (CCK-8); conditions: Fibroblast
Summary of the method: as §1

[5] = test system: human embryonic lung fibroblast IMR-90; assay: Anti-fibrosis activity test: inhibition of proliferation of human embryonic lung fibroblast IMR-90 (CCK-8)
Summary of the method: as §1

[6] = test system: cardiac fibroblast RAT-iCell-C002; assay: Anti-fibrosis activity test: inhibition of proliferation of cardiac fibroblast RAT-iCell-C002 (CCK-8); conditions: Cardiac fibroblast, 48 h
Summary of the method: as §1

NF-κB = assay: Immunological activity test: inhibition of NF-κB activity; conditions: initial concentration of 30 μM; a/b isomers given as first/second symbol; read-out: IC50 (μM), inhibitory activity against NF-κB
Summary of the method: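 Compounds were first screened for inhibition of NF-κB activity at 30 μM, with parthenolide as the positive control. IC50 values were then determined for the compounds by further analysis of the assay data.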

[7] = test system: mouse macrophages (RAW264.7); assay: Lipopolysaccharide-induced NO secretion in macrophages (Griess); conditions: Mus musculus, RAW264.7, 24 h, RAW264.7, LPS 1 μg/ml, a/b isomers given as first/second symbol, read-out: IC50 (μM), inhibition of lipopolysaccharide-induced NO secretion in macrophages
Summary of the method: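 RAW264.7 macrophages in DMEM with 10% FBS received test samples at several concentrations and were stimulated with 1 μg/ml LPS for 24 h. NO in the supernatant was measured with the Griess reagent at 548 nm, […].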

[8] = CCK-8, 48 hours after administration
[9] = human lung fibroblasts HFL1, CCK-8, 48 hours
[10] = human hepatic stellate cells LX-2, CCK-8, 48 hours
[11] = human fibrosarcoma cells HT-1080, CCK-8, 48 hours
[12] = human dermal fibroblasts CCC-ESF-1, CCK-8, 48 hours
[13] = human embryonic lung fibroblast IMR-90, CCK-8, 48 hours
[14] = cardiac fibroblast RAT-iCell-C002, CCK-8, 48 hours
[15] = Homo sapiens, CCC-ESF-1 cells, 48 h, CCK-8
[16] = Homo sapiens, IMR-90 cells, 48 h, CCK-8

| SMILES | IC50 [3, 11] [mM] | IC50 (NF-κB) [µM] | IC50 [7] [µM] | IC50 ([3]; HT-1080 cells, 48 h, CCK-8) [mM] | IC50 (BHK-21 cells; [8]) [mM] | IC50 [1, 9] [mM] | IC50 [2, 10] [mM] | IC50 [4, 12] [mM] | IC50 [5, 13] [mM] | IC50 [6, 14] [mM] | IC50 (BHK-21 cells; 48 h, CCK-8) [mM] | IC50 ([1]; HFL1 cells, 48 h, CCK-8) [mM] | IC50 ([2]; LX-2, 48 h, LX-2 cells, CCK-8) [mM] | IC50 [4, 15] [mM] | IC50 [5, 16] [mM] | IC50 ([6]; RAT-iCell-C002 cells, CCK-8) [mM] |
| --- | --- | --- | --- | --- | --- | --- | --- | --- | --- | --- | --- | --- | --- | --- | --- | --- |
| O=C1c2c(nc3cc(F)ccc3c2OCc2ccc(Cl)cc2)-c2cccn21 [Compound 496b, 9-((4-chlorobenzyl)oxy)-6-fluoro-10H-pyrrolizino[1,2-b]quinolin-10-one] | 0.05 to 5 | 10 to 50 | 1 to 10 |  | 0.05 to 5 | 0.05 to 5 | 0.05 to 5 | 0.05 to 5 | 0.05 to 5 | 0.05 to 5 |  |  |  |  |  |  |
| Cc1cccc2[nH]c3c(c(=O)c12)-c1cccn1C3=O [Compound 776a, 10-Methyl-5H-pyrrolizino[2,1-b]quinoline-5,11(6H)-dione] |  | 1 to 10 | 10 to 50 | 0.05 to 5 |  |  |  |  |  |  | < 0.05 | 0.05 to 5 | 0.05 to 5 | 0.05 to 5 | 0.05 to 5 | 0.05 to 5 |
| O=C(COc1c2c(nc3ccccc13)-c1cccn1C2=O)c1ccc(-c2ccccc2)cc1 [Compound 50b, 9-(2-([1,1′-biphenyl]-4-yl)-2-oxoethoxy)-10H-pyrrolizino[1,2-b]quinolin-10-one] | 0.05 to 5 | 1 to 10 | 1 to 10 |  | 0.05 to 5 | 0.05 to 5 | 5 to 20 | < 0.05 | 5 to 20 | 5 to 20 |  |  |  |  |  |  |
| CCCOCCn1c2c(c(=O)c3ccccc31)C(=O)n1cccc1-2 [Compound 671a, 4-(2-Propoxyethyl)-9H-pyrrolizino[1,2-b]quinoline-9,10(4H)-dione] |  | 1 to 10 | 1 to 10 | 0.05 to 5 |  |  |  |  |  |  | 0.05 to 5 | 0.05 to 5 | 0.05 to 5 | 0.05 to 5 | 0.05 to 5 | 0.05 to 5 |
| O=C(COc1c2c(nc3ccccc13)-c1cccn1C2=O)c1ccc(C(F)(F)F)cc1 [Compound 91b, 9-(2-oxo-2-(4-(trifluoromethyl)phenyl)ethoxy)-10H-pyrrolizino[1,2-b]quinolin-10-one] | 0.05 to 5 | 1 to 10 | 0.1 to 1 |  | 0.05 to 5 | < 0.05 | 5 to 20 | 0.05 to 5 | 0.05 to 5 | 0.05 to 5 |  |  |  |  |  |  |
| Cn1c2c(c(=O)c3cc(F)ccc31)C(=O)n1cccc1-2 [Compound 157a, 7-Fluoro-4-methyl-9H-pyrrolizino[1,2-b]quinoline-9,10(4H)-dione] | 0.05 to 5 | 10 to 50 | 0.1 to 1 |  | 5 to 20 | 0.05 to 5 | 0.05 to 5 | 0.05 to 5 | 0.05 to 5 | 0.05 to 5 |  |  |  |  |  |  |

More lines, main results first:

| IC50 [3, 11] [mM] | IC50 (NF-κB) [µM] | IC50 [7] [µM] | IC50 ([3]; HT-1080 cells, 48 h, CCK-8) [mM] | SMILES | IC50 (BHK-21 cells; [8]) [mM] | IC50 [1, 9] [mM] | IC50 [2, 10] [mM] | IC50 [4, 12] [mM] | IC50 [5, 13] [mM] | IC50 [6, 14] [mM] | IC50 (BHK-21 cells; 48 h, CCK-8) [mM] | IC50 ([1]; HFL1 cells, 48 h, CCK-8) [mM] | IC50 ([2]; LX-2, 48 h, LX-2 cells, CCK-8) [mM] | IC50 [4, 15] [mM] | IC50 [5, 16] [mM] | IC50 ([6]; RAT-iCell-C002 cells, CCK-8) [mM] |
| --- | --- | --- | --- | --- | --- | --- | --- | --- | --- | --- | --- | --- | --- | --- | --- | --- |
| 0.05 to 5 | 1 to 10 | 1 to 10 |  | O=C1c2c(nc3ccccc3c2OCCO)-c2cccn21 [Compound 11b, 9-(2-hydroxyethoxy)-10H-pyrrolizino[1,2-b]quinolin-10-one] | 0.05 to 5 | 0.05 to 5 | 0.05 to 5 | 0.05 to 5 | 0.05 to 5 | 0.05 to 5 |  |  |  |  |  |  |
| 0.05 to 5 | 1 to 10 | 1 to 10 |  | CS(=O)(=O)CCCOc1c2c(nc3ccccc13)-c1cccn1C2=O [Compound 659b, 9-(3-(methylsulfonyl)propoxy)-10H-pyrrolizino[1,2-b]quinolin-10-one] | 0.05 to 5 | 0.05 to 5 | 0.05 to 5 | 0.05 to 5 | 0.05 to 5 | 0.05 to 5 |  |  |  |  |  |  |
| 0.05 to 5 | 0.1 to 1 | 1 to 10 |  | O=C1c2c(nc3ccccc3c2OCc2cc(F)cc(F)c2)-c2cccn21 [Compound 579b, 9-((3,5-difluorobenzyl)oxy)-10H-pyrrolizino[1,2-b]quinolin-10-one] | 0.05 to 5 | 0.05 to 5 | 0.05 to 5 | 0.05 to 5 | 0.05 to 5 | 0.05 to 5 |  |  |  |  |  |  |
